Data: patent US20060235076A1, “Medicinal composition for treating infection with drug-resistant staphylococcus aureus” (priority 2003, published 2006)
Values after ≈ are worked out from the molar mass of the structure shown. Where two headings read alike, the source gives them in different places.

How the values were obtained:
MRSA and MSSA = test: Antibacterial activity of gallic acid, various gallates and multivalent phenol derivatives alone (agar plate dilution method, MIC); format: cell-based, Staphylococcus aureus; settings: Staphylococcus aureus
Experimental: (§1) According to the agar plate dilution method defined by Japan Society of Chemotherapy, MIC (Minimum inhibitory concentration) was determined. CAMHA was prepared by adding 50 mg/l of Ca-ion, 25 mg/l of Mg-ion, and 2% of NaCl to Mueller-Hinton II Agar (MHA), and it was used as a medium for use in the measurement of sensitivity. The bacterial liquid was incubated at 37° C. overnight and diluted to 10^6 CFU/ml with saline.
MIC for gallic acid, various gallates and multivalent phenol derivatives alone with MRSA and MSSA were determined as described in experiment 2.

MRSA = test: Potentiating effect of galloyl quinic acid derivatives for the antibacterial activity of oxacillin (agar plate dilution method, MIC); format: cell-based, Staphylococcus aureus
Experimental: as §1
It was confirmed that the known substances shown below were contained in “Tara” and their MICs were determined as described in example 2 with respect to the effects of the combination use with oxacillin

For O=C(O)c1cc(O)c(O)c(O)c1 [Gallic acid, gallic acid, reference compound], the MIC (MRSA and MSSA; ATCC 6538 / MRSA / MSSA, ATCC6538, read-out: MIC alone) was 62.5 µg/mL (≈ 367 µM), the MIC (MRSA and MSSA; COL, read-out: MIC alone) was 62.5 µg/mL (≈ 367 µM) and the MIC (MRSA and MSSA; MRSA #1, read-out: MIC alone) was 31.3 µg/mL (≈ 184 µM). It also gave an MIC (MRSA and MSSA; MRSA #2, read-out: MIC alone) of 62.5 µg/mL (≈ 367 µM), an MIC (MRSA and MSSA; MRSA #3, read-out: MIC alone) of 31.3 µg/mL (≈ 184 µM) and an MIC (MRSA and MSSA; MRSA #4, read-out: MIC alone) of 62.5 µg/mL (≈ 367 µM). The MIC (MRSA and MSSA; MRSA #5, read-out: MIC alone) was 31.3 µg/mL (≈ 184 µM), the MIC (MRSA and MSSA; MRSA #6, read-out: MIC alone) was 31.3 µg/mL (≈ 184 µM) and the MIC (MRSA and MSSA; MRSA #7, read-out: MIC alone) was 62.5 µg/mL (≈ 367 µM). The MIC (MRSA and MSSA; MRSA #8, read-out: MIC alone) was 31.3 µg/mL (≈ 184 µM), the MIC (MRSA and MSSA; MRSA #9, read-out: MIC alone) was 31.3 µg/mL (≈ 184 µM) and the MIC (MRSA and MSSA; MRSA #10, read-out: MIC alone) was 31.3 µg/mL (≈ 184 µM). For the same compound, the MIC (MRSA and MSSA; MRSA #12, read-out: MIC alone) was 62.5 µg/mL (≈ 367 µM), the MIC (MRSA and MSSA; MRSA #16, read-out: MIC alone) was 31.3 µg/mL (≈ 184 µM) and the MIC (MRSA and MSSA; MRSA #17, read-out: MIC alone) was 62.5 µg/mL (≈ 367 µM). It also gave an MIC (MRSA and MSSA; MRSA #18, read-out: MIC alone) of 62.5 µg/mL (≈ 367 µM), an MIC (MRSA and MSSA; MRSA #20, read-out: MIC alone) of 62.5 µg/mL (≈ 367 µM) and an MIC (MRSA and MSSA; MRSA #21, read-out: MIC alone) of 62.5 µg/mL (≈ 367 µM). The MIC (MRSA and MSSA; MRSA #22, read-out: MIC alone) was 62.5 µg/mL (≈ 367 µM), the MIC (MRSA and MSSA; MRSA #24, read-out: MIC alone) was 62.5 µg/mL (≈ 367 µM) and the MIC (MRSA and MSSA; MSSA #1003, read-out: MIC alone) was 62.5 µg/mL (≈ 367 µM). The MIC (MRSA and MSSA; MSSA #1010, read-out: MIC alone) was 62.5 µg/mL (≈ 367 µM), the MIC (MRSA and MSSA; MSSA #1020, read-out: MIC alone) was 62.5 µg/mL (≈ 367 µM) and the MIC (MRSA and MSSA; MSSA #1023, read-out: MIC alone) was 31.3 µg/mL (≈ 184 µM). It also gave an MIC (MRSA and MSSA; MSSA #1029, read-out: MIC alone) of 31.3 µg/mL (≈ 184 µM), an MIC (MRSA and MSSA; MSSA #1032, read-out: MIC alone) of 31.3 µg/mL (≈ 184 µM) and an MIC50 (MRSA and MSSA; compound alone, over all strains of Table 3-1, read-out: MIC50) of 62.5 µg/mL (≈ 367 µM).

CC(C)CCOC(=O)c1ccc(O)cc1 [Isoamyl 4-hydroxybenzoate] gave an MIC50 (MRSA and MSSA) of 62.5 µg/mL (≈ 300 µM), an MIC (MRSA and MSSA; ATCC 6538 / MRSA / MSSA) of 62.5 µg/mL (≈ 300 µM) and an MIC (MRSA and MSSA; COL, compound alone, read-out: MIC) of 62.5 µg/mL (≈ 300 µM). It also gave an MIC (MRSA and MSSA; MRSA #1, compound alone, read-out: MIC) of 62.5 µg/mL (≈ 300 µM), an MIC (MRSA and MSSA; MRSA #2, compound alone, read-out: MIC) of 62.5 µg/mL (≈ 300 µM) and an MIC (MRSA and MSSA; MRSA #3, compound alone, read-out: MIC) of 62.5 µg/mL (≈ 300 µM). It also gave an MIC (MRSA and MSSA; MRSA #4, compound alone, read-out: MIC) of 62.5 µg/mL (≈ 300 µM), an MIC (MRSA and MSSA; MRSA #5, compound alone, read-out: MIC) of 62.5 µg/mL (≈ 300 µM) and an MIC (MRSA and MSSA; MRSA #6, compound alone, read-out: MIC) of 62.5 µg/mL (≈ 300 µM). The MIC (MRSA and MSSA; MRSA #7, compound alone, read-out: MIC) was 62.5 µg/mL (≈ 300 µM), the MIC (MRSA and MSSA; MRSA #8, compound alone, read-out: MIC) was 62.5 µg/mL (≈ 300 µM) and the MIC (MRSA and MSSA; MRSA #9, compound alone, read-out: MIC) was 62.5 µg/mL (≈ 300 µM). For the same compound, the MIC (MRSA and MSSA; MRSA #10, compound alone, read-out: MIC) was 31.3 µg/mL (≈ 150 µM), the MIC (MRSA and MSSA; MRSA #12, compound alone, read-out: MIC) was 62.5 µg/mL (≈ 300 µM) and the MIC (MRSA and MSSA; MRSA #16, compound alone, read-out: MIC) was 62.5 µg/mL (≈ 300 µM). It also gave an MIC (MRSA and MSSA; MRSA #17, compound alone, read-out: MIC) of 62.5 µg/mL (≈ 300 µM), an MIC (MRSA and MSSA; MRSA #18, compound alone, read-out: MIC) of 62.5 µg/mL (≈ 300 µM) and an MIC (MRSA and MSSA; MRSA #20, compound alone, read-out: MIC) of 62.5 µg/mL (≈ 300 µM). It also gave an MIC (MRSA and MSSA; MRSA #21, compound alone, read-out: MIC) of 62.5 µg/mL (≈ 300 µM), an MIC (MRSA and MSSA; MRSA #22, compound alone, read-out: MIC) of 62.5 µg/mL (≈ 300 µM) and an MIC (MRSA and MSSA; MRSA #24, compound alone, read-out: MIC) of 62.5 µg/mL (≈ 300 µM). For the same compound, the MIC (MRSA and MSSA; MSSA #1003, compound alone, read-out: MIC) was 62.5 µg/mL (≈ 300 µM), the MIC (MRSA and MSSA; MSSA #1010, compound alone, read-out: MIC) was 62.5 µg/mL (≈ 300 µM) and the MIC (MRSA and MSSA; MSSA #1020, compound alone, read-out: MIC) was 62.5 µg/mL (≈ 300 µM). The MIC (MRSA and MSSA; MSSA #1023, compound alone, read-out: MIC) was 62.5 µg/mL (≈ 300 µM), the MIC (MRSA and MSSA; MSSA #1029, compound alone, read-out: MIC) was 62.5 µg/mL (≈ 300 µM) and the MIC (MRSA and MSSA; MSSA #1032, compound alone, read-out: MIC) was 62.5 µg/mL (≈ 300 µM).

COC(=O)C1(O)CC(OC(=O)c2cc(O)c(O)c(O)c2)C(OC(=O)c2cc(O)c(O)c(O)c2)C(OC(=O)c2cc(O)c(O)c(O)c2)C1 (stereo not shown) [Methyl 3,4,5-trigalloylquinate, methyl 3,4,5-trigalloylquinate] was tested, and the “effect of combination use with oxacillin (words)” value (MRSA) was “weak effects”.
